The values below come from US20230220035A1 (DONG-A ST CO., LTD., published 2023).

Where two headings read alike, the source gives them in different places.

Data set [1] deals with overweight and obese patients. The settings on record: subcutaneously for 4 weeks, 3 times per day; cited from earlier work.
Data set [2] concerns the target T1, GLP-1 receptor (Homo sapiens, UniProt P43220). The settings on record: read-out: EC50 to the GLP-1 receptor; from Korean Patent Application No. 2017-0103798 / 2018-0095717; cited from earlier work.
Target sequence in this assay (P43220 24-463, species assumed): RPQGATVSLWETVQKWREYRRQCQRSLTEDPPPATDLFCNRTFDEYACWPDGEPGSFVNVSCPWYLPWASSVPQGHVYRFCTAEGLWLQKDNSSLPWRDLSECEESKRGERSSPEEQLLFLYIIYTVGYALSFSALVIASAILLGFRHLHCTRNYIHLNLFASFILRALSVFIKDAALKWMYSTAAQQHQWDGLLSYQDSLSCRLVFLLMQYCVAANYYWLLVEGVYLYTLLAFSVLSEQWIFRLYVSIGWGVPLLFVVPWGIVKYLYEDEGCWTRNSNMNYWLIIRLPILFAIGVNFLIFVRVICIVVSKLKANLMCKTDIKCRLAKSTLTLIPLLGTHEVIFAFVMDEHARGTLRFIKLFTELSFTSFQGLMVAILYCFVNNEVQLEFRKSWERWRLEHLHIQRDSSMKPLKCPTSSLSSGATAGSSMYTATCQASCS
In data set [3] the target is T2, glucagon receptor (Homo sapiens, UniProt P47871). The settings on record: from Korean Patent Application No. 2017-0103798 / 2018-0095717; cited from earlier work.
Target sequence in this assay (P47871 26-477, species assumed): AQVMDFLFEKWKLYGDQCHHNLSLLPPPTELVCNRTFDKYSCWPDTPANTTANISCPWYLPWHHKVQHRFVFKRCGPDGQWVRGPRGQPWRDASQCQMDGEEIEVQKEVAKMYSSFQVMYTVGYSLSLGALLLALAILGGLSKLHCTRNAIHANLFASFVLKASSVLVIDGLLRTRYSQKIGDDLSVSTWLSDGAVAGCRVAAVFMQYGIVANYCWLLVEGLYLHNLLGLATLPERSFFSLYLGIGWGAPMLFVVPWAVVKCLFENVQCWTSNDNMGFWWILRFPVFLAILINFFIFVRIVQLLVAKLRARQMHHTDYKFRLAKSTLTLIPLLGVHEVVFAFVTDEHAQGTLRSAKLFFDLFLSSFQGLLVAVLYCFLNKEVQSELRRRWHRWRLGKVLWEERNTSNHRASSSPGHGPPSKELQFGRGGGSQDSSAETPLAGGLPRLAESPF
A short description of data set [4]: in vivo. The settings on record: mouse.
From the text: (§1) ICR mice were used to evaluate the pharmacokinetics in mice of the acylated oxyntomodulin peptide analogs according to the present invention.
Data set [5] is described as follows: in vivo. The settings on record: cynomolgus monkey, sc.
From the text: (§2) Cynomolgus monkeys were used to evaluate the pharmacokinetics in monkeys of the acylated oxyntomodulin peptide analogs according to the present invention.
Data set [6] has as its target T1, GLP-1 receptor. As to the kind of experiment: Human GLP-1 receptor activation assay (CRE-luciferase). The class given is cell-based. Details: host or cells: CHO-K1. The settings on record: for Emax: CHO-K1, 6 h, read-out: GLP-1 receptor Maximum activation (% vs GLP-1); for EC50: CHO-K1 cells transiently transfected, luciferase, 6 hours, 0.1% BSA.
Target sequence in this assay (P43220 24-463): as the sequence (P43220 24-463, species assumed) above
The target in data set [7] is T2, glucagon receptor. Nature of the data set: Human glucagon receptor activation assay (CRE-luciferase). In kind it is cell-based. Also noted: host or cells: CHO-K1. The settings on record: CHO-K1 cells transiently transfected; for Emax: 6 h, relative to glucagon, read-out: GCG receptor Maximum activation (% vs GCG); for EC50: 6 hours, 0.1% BSA, read-out: GCG receptor EC50.
Target sequence in this assay (P47871 26-477): as the sequence (P47871 26-477, species assumed) above

Data set [8] in a line: Single-dose pharmacokinetic profile in mice. The settings on record: mouse.
From the text: as §1
Data set [9] in a line: Single-dose pharmacokinetic profile in monkeys. The settings on record: cynomolgus monkey, plasma, sc, 100 nmmol/kg, Monkey PK (S.C. half-life), single S.C. dose 100 nmmol/kg.
From the text: as §2
Where [10] appears, read: ICR, sc, Mouse PK (S.C. half-life).

Take “HSQGTFTSDYSKYLDSRRAQDFVQWLMNTKRNRNNIA (HSQGTFTSDKSKYLDSRRAQDFVQWLMNTKRNRNNIA; listed as Homo sapiens) [oxyntomodulin]”: the “body weight loss on average” value in data set [1] is 2.3 kg.

As for `CCCCCCCCCCCCCCCCCC(=O)N[C@@H](CCC(=O)NCCOCCOCC(=O)NCCOCCOCC(=O)NCCCC[C@H](NC(=O)[C@H](CC(=O)O)NC(=O)[C@H](CO)NC(=O)[C@@H](NC(=O)[C@H](Cc1ccccc1)NC(=O)[C@@H](NC(=O)CNC(=O)[C@H](CCC(N)=O)NC(=O)C(C)(C)NC(=O)[C@@H](N)Cc1c[nH]cn1)[C@@H](C)O)[C@@H](C)O)C(=O)N[C@@H](CO)C(=O)N[C@@H](CCCCN)C(=O)N[C@@H](Cc1ccc(O)cc1)C(=O)N[C@@H](CC(C)C)C(=O)N[C@@H](CC(=O)O)C(=O)NC(C)(C)C(=O)N[C@@H](CCCNC(=N)N)C(=O)N[C@@H](CCCNC(=N)N)C(=O)N[C@@H](C)C(=O)N[C@@H](CCC(N)=O)C(=O)N[C@@H](CC(=O)O)C(=O)N[C@@H](Cc1ccccc1)C(=O)N[C@H](C(=O)N[C@@H](CCC(N)=O)C(=O)N[C@@H](Cc1c[nH]c2ccccc12)C(=O)N[C@@H](CC(C)C)C(=O)N[C@@H](CCSC)C(=O)N[C@@H](CC(N)=O)C(=O)N[C@H](C(=O)N[C@@H](CCCCN)C(=O)N[C@@H](CCC(=O)O)C(=O)N[C@@H](Cc1ccc(O)cc1)C(=O)N[C@@H](CCC(=O)O)C(=O)N[C@@H](CCCCNC(=O)CCCCCCCCCCCCCCCCC(=O)O)C(=O)N[C@@H](CCC(=O)O)C(=O)N[C@@H](Cc1ccc(O)cc1)C(=O)N[C@@H](CCC(=O)O)C(=O)O)[C@@H](C)O)C(C)C)C(=O)O` [Compound 3], the EC50 (in general, the midpoint of the concentration-response curve) at GLP-1 receptor [2] was less than 0.01 nM; at glucagon receptor [3] it was less than 0.01 nM; on GLP-1 receptor [6], 0.1 to 1 nM; on glucagon receptor [7], 0.1 to 1 nM. Besides, the half-life (in general, the time needed for the level to fall by half in the phase considered) in “in vivo [4]” (setting [10]) was more than 6 h; in “in vivo [4]” (ICR, sc, half-life in mice), more than 6 h; in “in vivo [4]” (half-life, pharmacokinetic evaluation in mice (background)), 3.3 h; in the data set “in vivo [5]” (Monkey PK (S.C. half-life)) it was more than 24 h; in the data set “in vivo [5]” (monkey PK half-life) it was more than 24 h. The Emax on GLP-1 receptor [6] and on glucagon receptor [7] was 98.3% throughout.

Take `CCCCCCCCCCCCCCCC(=O)N[C@@H](CCC(=O)NCCCC[C@H](NC(=O)[C@H](CC(=O)O)NC(=O)[C@H](CO)NC(=O)[C@@H](NC(=O)[C@H](Cc1ccccc1)NC(=O)[C@@H](NC(=O)CNC(=O)[C@H](CCC(N)=O)NC(=O)[C@H](CO)NC(=O)[C@@H](N)Cc1c[nH]cn1)[C@@H](C)O)[C@@H](C)O)C(=O)N[C@@H](CO)C(=O)N[C@@H](CCC(=O)O)C(=O)N[C@@H](Cc1ccc(O)cc1)C(=O)N[C@@H](CC(C)C)C(=O)N[C@@H](CC(=O)O)C(=O)N[C@@H](CO)C(=O)N[C@@H](CCC(=O)O)C(=O)N[C@@H](CCCNC(=N)N)C(=O)N[C@@H](C)C(=O)N[C@@H](CCCNC(=N)N)C(=O)N[C@@H](CC(=O)O)C(=O)N[C@@H](Cc1ccccc1)C(=O)N[C@H](C(=O)N[C@@H](C)C(=O)N[C@@H](Cc1c[nH]c2ccccc12)C(=O)N[C@@H](CC(C)C)C(=O)N[C@@H](CCC(=O)O)C(=O)N[C@@H](C)C(=O)NCC(=O)NCC(=O)O)C(C)C)C(=O)O` [MEDI0382]: the half-life was less than 6 h in data set [8] (ICR, plasma, sc, 30 nmmol/kg, Mouse PK (S.C. half-life), ICR mice, single S.C. dose 30 nmmol/kg); 4 h in [8] (in vivo, half-life, pharmacokinetic evaluation in mice (background), mice, dose not given); less than 6 h in data set [9].

Regarding `CCCCCCCCCCCCCCCCCC(=O)N[C@@H](CCC(=O)NCCOCCOCC(=O)NCCOCCOCC(=O)NCCCC[C@H](NC(=O)[C@H](CC(=O)O)NC(=O)[C@H](CO)NC(=O)[C@@H](NC(=O)[C@H](Cc1ccccc1)NC(=O)[C@@H](NC(=O)CNC(=O)[C@H](CCC(N)=O)NC(=O)C(C)(C)NC(=O)[C@@H](N)Cc1c[nH]cn1)[C@@H](C)O)[C@@H](C)O)C(=O)N[C@@H](CO)C(=O)N[C@@H](CCCCN)C(=O)N[C@@H](Cc1ccc(O)cc1)C(=O)N[C@@H](CC(C)C)C(=O)N[C@@H](CC(=O)O)C(=O)NC(C)(C)C(=O)N[C@@H](CCCNC(=N)N)C(=O)N[C@@H](CCCNC(=N)N)C(=O)N[C@@H](C)C(=O)N[C@@H](CCC(N)=O)C(=O)N[C@@H](CC(=O)O)C(=O)N[C@@H](Cc1ccccc1)C(=O)N[C@H](C(=O)N[C@@H](CCC(N)=O)C(=O)N[C@@H](Cc1c[nH]c2ccccc12)C(=O)N[C@@H](CC(C)C)C(=O)N[C@@H](CCSC)C(=O)N[C@@H](CC(N)=O)C(=O)N[C@H](C(=O)N[C@@H](CCCCN)C(=O)N[C@@H](CCC(=O)O)C(=O)N[C@@H](Cc1ccc(O)cc1)C(=O)N[C@@H](CCC(=O)O)C(=O)N[C@@H](CCCCNC(=O)CCCCCCCCCCCCCCCCC(N)=O)C(=O)N[C@@H](CCC(=O)O)C(=O)N[C@@H](Cc1ccc(O)cc1)C(=O)N[C@@H](CCC(=O)O)C(=O)O)[C@@H](C)O)C(C)C)C(=O)O` [Compound 7], the half-life in the data set “in vivo [4]” (setting [10]) is more than 6 h; in the data set “in vivo [4]” (ICR, sc, half-life in mice), more than 6 h; in the data set “in vivo [5]” (Monkey PK (S.C. half-life)), more than 24 h; in the data set “in vivo [5]” (monkey PK half-life), more than 24 h. In addition, the Emax stood at 90.8% on GLP-1 receptor [6] and 100% at glucagon receptor [7]. The EC50 on GLP-1 receptor [6] and at glucagon receptor [7] was less than 0.1 nM in each case.
